The assay has as its target T1, beta-lactamase (Escherichia coli, UniProt P62593, A182V/V82I).
T1 construct: HCV core N-terminal partial region (first 12 codons, about 36 nucleotides of core), then a 3-residue linker (Gly-Arg-Ala) and an added Met before His24 of the enzyme; expressed in transfected cells; host or cells: replicon-enhanced Huh-7 cells transfected with HCV replicon RNA encoding beta-lactamase
Put plainly: HCV replicon beta-lactamase assay: signal-to-background with clavulanic acid. In kind it is cell-based. The following applies: for Δ: 1.23 at 0.00 μM, Δ not defined; for S/B: 3.5 at 0.00 μM. On the procedure: Clavulanic acid can be used to enhance the signal-to-background ratio from the beta-lactamase reporter system wherein, a larger signal to noise ratio facilitates detection of HCV replication inhibitors by better reflecting changes in the intracellular concentration of beta-lactamase.
Prior to use, frozen cells are thawed fresh in the morning of the assay or the day before and diluted in pre-warmed media to 40,000 cells/ml. Cell suspension (50 μl) is plated into 384-well micro-titer plates. The cells are allowed to recover for at least 6 hours at 37° C. in the plates before beginning an assay. 1 μl of 25 μM clavulanic acid in PBS and 0.25 μl of 500 μM test compounds in DMSO are added to the cells. The assay cell plates are then incubated for 24 hours at 37° C. To the assay plate, 10 μl of 6×CCF4/AM substrate in loading buffer is added with a Multidrop (Labsystems), and the plate incubated for 90 minutes at ambient temperature. The plate is then read from the bottom on a Teacn Spectrafluor Plus (340 nm excitation, 460 nm and 530 nm emissions).
In the example described below, clavulanic acid is present throughout the assay at a concentration that slightly reduces beta-lactamase activity instead of using it at high concentration that would complete inhibit beta-lactamase activity.
Table 2 provides results obtained using different concentrations of clavulanic acid and an HCV NS5B inhibitor.
For orientation: Replicon systems follow genome replication, usually without infectious particles.

With `O=C(O)[C@H]1/C(=C/CO)O[C@@H]2CC(=O)N21` [clavulanic acid], the Δ is, setting by setting: ([CA] 0.13 μM) 1.22; ([CA] 0.25 μM) 1.17; ([CA] 0.50 μM) 0.97; ([CA] 1.00 μM) 0.81. The S/B was 5.7 ([CA] 0.13 μM), 6.0 ([CA] 0.25 μM), 6.3 ([CA] 0.50 μM) and 5.4 ([CA] 1.00 μM).

The record behind these values is patent US7786287B2, “Hepatitis C virus assay systems” (priority 2002, dated 2010).
